According to PubChem BioAssay (NCI):
Where “and” joins values, the source holds several entries; their conditions need not be identical. Equal entries are not always repeated.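 Method: 48-hour compound exposure of cells in 96-well plates, five concentrations, linear interpolation of endpoints. Here, GI50 denotes the concentration required for 50% inhibition of growth. At the TGI there is no net growth.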

How the values were obtained:
Experiment in all cases: inhibition of tumour cell growth, NCI panel, 48 h
SK-MEL-2 melanoma = tested on: SK-MEL-2 melanoma
OVCAR-4 ovarian = tested on: OVCAR-4 ovarian
LOX IMVI melanoma = tested on: LOX IMVI melanoma
NCI-H226 lung = tested on: NCI-H226 lung
SK-MEL-5 melanoma = tested on: SK-MEL-5 melanoma
NCI-H460 lung = tested on: NCI-H460 lung
MDA-MB-435 = tested on: MDA-MB-435
MALME-3M melanoma = tested on: MALME-3M melanoma
A549 NSCLC = tested on: A549 NSCLC
SW-620 colon = tested on: SW-620 colon

Compound	GI50 (SK-MEL-2 melanoma)	TGI (SK-MEL-2 melanoma)	GI50 (OVCAR-4 ovarian) [µM]	TGI (OVCAR-4 ovarian)	GI50 (LOX IMVI melanoma)	TGI (LOX IMVI melanoma)	GI50 (NCI-H226 lung)	TGI (NCI-H226 lung)	GI50 (SK-MEL-5 melanoma)	TGI (SK-MEL-5 melanoma)	GI50 (NCI-H460 lung)	TGI (NCI-H460 lung)	GI50 (MDA-MB-435)	TGI (MDA-MB-435)	GI50 (MALME-3M melanoma) [µM]	TGI (MALME-3M melanoma)	GI50 (A549 NSCLC)	TGI (A549 NSCLC)	GI50 (SW-620 colon)	TGI (SW-620 colon)
O=c1[nH]c2ccccc2n1C1CCN(CCCC(c2ccc(F)cc2)c2ccc(F)cc2)CC1	2.1 µM and 5.52 µM	3.96 µM and 12.3 µM	1.23	2.47 µM and 22 µM	1.61 µM and 2.55 µM	3.02 µM and 6.62 µM	1.51 µM and 6.66 µM	2.97 µM and 20.3 µM	1.42 µM and 2.13 µM	2.74 µM and 4.8 µM	1.75 µM and 4.26 µM	3.4 µM and 12 µM	1.54 µM and 4.49 µM	3.06 µM and 11.5 µM	1.71	3.42 µM and 5.09 µM	1.48 µM and 7.32 µM	3.14 µM and 21.9 µM	1.75 µM and 4.5 µM	3.41 µM and 13.8 µM
N#Cc1cccc(Nc2ncc(-c3ccccc3)o2)c1	> 25 µM	> 25 µM	10.9	> 25 µM	9.47 µM	> 25 µM	8.65 µM	> 25 µM	13 µM	> 25 µM	11.3 µM	> 25 µM	> 25 µM	> 25 µM	> 25	> 25 µM	11.7 µM	> 25 µM	22.4 µM	> 25 µM
COc1ccc2nc3cc(Cl)ccc3c(N3CCN(c4ccnc(N5CCN(C)CC5)n4)CC3)c2c1	3.72 µM	12.2 µM	1.61	3.02 µM	1.89 µM	3.45 µM	49.6 µM	> 100 µM	11.3 µM	28 µM	2.29 µM	5.43 µM	1.79 µM	3.66 µM	2.2	4 µM	14.8 µM	36 µM	1.8 µM	3.53 µM
COC1=C(OC)C(=O)C(CCCCCCCCCCO)=C(C)C1=O	3.2 µM	8.1 µM	1.29	2.6 µM	0.964 µM	9.72 µM	13.8 µM	29.9 µM	5.92 µM	19.1 µM	14.8 µM	34.9 µM	1.89 µM	3.9 µM	7.47	21.8 µM	15.3 µM	34.8 µM	14.7 µM	30.9 µM
CSC1=Nc2c(c(C)c(-c3ccccc3)n2COC(CO)CO)C2=NC(=O)CN12	> 100 µM	> 100 µM	> 100	> 100 µM	> 100 µM	> 100 µM	88.2 µM	> 100 µM	> 100 µM	> 100 µM	> 100 µM	> 100 µM	> 100 µM	> 100 µM	> 100	> 100 µM	> 100 µM	> 100 µM	> 100 µM	> 100 µM
Cn1c(C(=O)c2cccc3ccccc23)nc2ccccc21	> 100 µM	> 100 µM	35.1	> 100 µM	> 100 µM	> 100 µM	> 100 µM	> 100 µM	> 100 µM	> 100 µM	> 100 µM	> 100 µM	> 100 µM	> 100 µM	> 100	> 100 µM	> 100 µM	> 100 µM	> 100 µM	> 100 µM
C=C1C(=O)O[C@H]2[C@H]1CC/C(COC(=O)NCc1c[nH]c3ccc(F)cc13)=C\CC[C@@]1(C)O[C@@H]21	1.5 µM	3.39 µM	1.52	3.59 µM	0.952 µM	2.28 µM	1.74 µM	3.3 µM	1.69 µM	3.11 µM	2.4 µM	6.03 µM	1.31 µM	3.1 µM	1.66	3.32 µM	3.17 µM	10.9 µM	0.619 µM	2.65 µM
COc1ccc(C2CC(c3ccc(N(C)C)cc3)=NN2c2ccc(S(N)(=O)=O)cc2)cc1 (stereo not given)	4 µM	14.3 µM	3.19	> 100 µM	1.87 µM	4.02 µM	2.54 µM	8.09 µM	1.73 µM	3.37 µM	2.44 µM	5.53 µM	3.25 µM	34.4 µM	4.12	28.1 µM	3.16 µM	> 100 µM	4.06 µM	> 100 µM
O=C1/C(=C/c2ccccc2O)N=C(c2ccccc2)N1c1cc(C(F)(F)F)ccc1Cl	> 100 µM	> 100 µM	> 100	> 100 µM	40.8 µM	> 100 µM	33 µM	> 100 µM	62.2 µM	> 100 µM	> 100 µM	> 100 µM	22.1 µM	> 100 µM	46.7	> 100 µM	75.7 µM	> 100 µM	> 100 µM	> 100 µM
